From US20100178259A1, “REDUCING FIBROSIS USING MATRIX METALLOPROTEINASE INHIBITORS” (The Regents of The University of Michigan, priority 2009, published 2010)
“Also recorded” adds a separate entry of the source.

Tests used:
[1] = test system: HRS/J hairless mice skin exposed to UV irradiation; assay: UV irradiation sunburn/scarring in hairless mice, topical treatment, skin cross-section histology; format: in vivo, mouse; details: UV 200-400 mJ/square cm, topical 1% MMI270 in 70% ethanol (95%) and 30% propylene glycol daily after UV exposure, compared to untreated irradiated skin (FIG. 2)
Method: The following experiments illustrate embodiments of the present technology. Experimental mice (HRS/J hairless mice) are treated with UV irradiation at a dosage that results in sunburn and consequent scarring of the skin. UV exposure includes daily exposure (Mon-Fri), or 3× per week (Mon, Wed, Fri), at 200-400 mJ/square cm, until scarring occurs, typically after 2-3 weeks. The UVB/A2 source is FS tubes filtered with Kodacel to remove wavelengths below 290 nm. Non-irradiated mice serve as non-wounded controls.
FIG. 1 is a photograph of a tissue cross-section of non-irradiated mouse skin. The outer surface of the skin includes a layer 110 of dead skin cells overtop the epidermis 120. Located beneath the epidermis 120, is a region comprising extracellular matrix 130, which includes collagen and other proteins. A layer of fat cells 140 underlies the extracellular matrix 130 and is followed by muscle 150. Hair follicles 160 can be seen embedded within the extracellular matrix 130 region.
FIG. 2 is a photograph of a tissue cross-section of mouse skin that was exposed to UV irradiation to cause a burn and that was not treated with MMP inhibitor. Morphology of the skin changes in response to the burn wound which can subsequently form into a scar. The outer skin surface and layer 210 of dead skin cells overlies a thickened epidermis 220 followed by a thickened region of extracellular matrix 230. […]

MMP-1 = target: T1, MMP-1 (Homo sapiens, UniProt P03956); details: in vitro; cited from earlier work
T1 sequence (P03956 100-469): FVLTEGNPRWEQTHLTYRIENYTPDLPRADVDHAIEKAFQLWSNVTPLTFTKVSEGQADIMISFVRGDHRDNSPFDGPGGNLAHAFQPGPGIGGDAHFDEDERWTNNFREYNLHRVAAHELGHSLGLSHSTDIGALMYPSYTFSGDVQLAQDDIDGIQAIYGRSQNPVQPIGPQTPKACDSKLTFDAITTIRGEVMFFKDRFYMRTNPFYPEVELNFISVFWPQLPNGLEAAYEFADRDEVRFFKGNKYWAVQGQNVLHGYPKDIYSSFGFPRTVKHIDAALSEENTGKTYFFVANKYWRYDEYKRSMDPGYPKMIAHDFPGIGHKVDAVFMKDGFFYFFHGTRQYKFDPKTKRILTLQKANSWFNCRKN

MMP-2 = target: T2, MMP-2 (Homo sapiens, UniProt P08253); details: in vitro; cited from earlier work
T2 sequence (P08253 110-660): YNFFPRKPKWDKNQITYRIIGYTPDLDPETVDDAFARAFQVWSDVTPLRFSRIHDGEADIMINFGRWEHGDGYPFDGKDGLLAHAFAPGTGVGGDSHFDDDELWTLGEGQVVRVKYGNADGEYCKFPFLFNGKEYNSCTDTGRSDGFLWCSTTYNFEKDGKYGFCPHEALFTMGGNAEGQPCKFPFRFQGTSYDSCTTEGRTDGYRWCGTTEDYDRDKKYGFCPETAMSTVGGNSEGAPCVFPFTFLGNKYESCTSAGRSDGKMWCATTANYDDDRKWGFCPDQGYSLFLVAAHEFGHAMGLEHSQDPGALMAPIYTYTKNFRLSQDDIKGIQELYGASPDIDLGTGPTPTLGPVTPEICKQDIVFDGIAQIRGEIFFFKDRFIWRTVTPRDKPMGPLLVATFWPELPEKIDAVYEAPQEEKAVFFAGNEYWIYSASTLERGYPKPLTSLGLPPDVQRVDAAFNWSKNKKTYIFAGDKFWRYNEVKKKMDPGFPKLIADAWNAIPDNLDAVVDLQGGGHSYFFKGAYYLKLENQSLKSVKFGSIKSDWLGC

MMP-3 = MMP-3 (Homo sapiens, UniProt P08254); details: in vitro; cited from earlier work
MMP-9 = MMP-9 (Homo sapiens, UniProt P14780); details: in vitro; cited from earlier work
Sequence of MMP-9 (P14780 94-707, species assumed): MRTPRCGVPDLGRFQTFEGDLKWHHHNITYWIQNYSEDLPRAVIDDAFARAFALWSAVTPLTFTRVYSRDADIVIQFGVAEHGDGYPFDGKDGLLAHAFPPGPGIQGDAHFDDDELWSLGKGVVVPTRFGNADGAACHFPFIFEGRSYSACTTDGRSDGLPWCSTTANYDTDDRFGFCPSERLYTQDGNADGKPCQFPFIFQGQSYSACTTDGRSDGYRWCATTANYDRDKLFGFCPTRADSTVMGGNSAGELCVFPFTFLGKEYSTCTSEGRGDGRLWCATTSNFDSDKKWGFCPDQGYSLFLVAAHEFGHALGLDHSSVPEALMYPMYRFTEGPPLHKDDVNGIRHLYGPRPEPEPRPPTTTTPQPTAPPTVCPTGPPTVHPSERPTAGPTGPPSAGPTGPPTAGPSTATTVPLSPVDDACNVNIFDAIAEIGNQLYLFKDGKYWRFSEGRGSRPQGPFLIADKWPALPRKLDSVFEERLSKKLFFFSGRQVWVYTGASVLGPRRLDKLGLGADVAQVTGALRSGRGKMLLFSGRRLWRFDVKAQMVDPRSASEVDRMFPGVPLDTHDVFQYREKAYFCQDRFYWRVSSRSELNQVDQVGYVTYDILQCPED

Sequence of MMP-3 (P08254 100-477, species assumed): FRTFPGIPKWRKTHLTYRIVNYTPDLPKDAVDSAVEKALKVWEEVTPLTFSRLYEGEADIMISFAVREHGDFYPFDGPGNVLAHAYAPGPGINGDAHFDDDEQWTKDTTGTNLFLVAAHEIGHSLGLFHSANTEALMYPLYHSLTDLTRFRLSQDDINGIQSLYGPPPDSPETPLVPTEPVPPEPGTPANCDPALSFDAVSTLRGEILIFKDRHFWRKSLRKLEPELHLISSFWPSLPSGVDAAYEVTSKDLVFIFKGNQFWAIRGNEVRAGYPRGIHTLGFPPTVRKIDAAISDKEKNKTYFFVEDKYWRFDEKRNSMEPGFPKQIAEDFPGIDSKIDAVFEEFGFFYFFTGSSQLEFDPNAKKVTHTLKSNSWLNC

## COc1ccc(S(=O)(=O)N(Cc2cccnc2)[C@@H](C(=O)NO)C(C)C)cc1 [MMI270, N-hydroxy-2(R)-[[4-methoxybenzenesulfonyl]-(3-picolyl)amino]-3-methylbutanamide]
[1]
  expansion and thickening of the epidermis and extracellular matrix: less expansion and thickening of the epidermis and extracellular matrix; also recorded: decrease in thickness of the extracellular matrix
MMP-1
  concentration inhibiting MMP-1 activity: nanomolar concentrations
MMP-2
  concentration inhibiting MMP-2 activity: nanomolar concentrations
MMP-3
  concentration inhibiting MMP-3 activity: nanomolar concentrations
MMP-9
  concentration inhibiting MMP-9 activity: nanomolar concentrations
